Measured values reported in the CheMixHub viscosity set.
Values joined by “and” are separate entries in the source; they are usually repeats but may differ in a detail not shown here. Equal entries are not always repeated.

Key:
[1] = xn = mol fraction of the nth substance listed; conditions: 101 kPa

C=CC(=O)OCC
viscosity
Conditions | 293.15 K | 298.15 K | 303.15 K | 308.15 K | 313.15 K | 318.15 K
100 kPa | 0.5685 mPa·s | 0.533 mPa·s | 0.5 mPa·s | 0.4643 mPa·s | 0.423 mPa·s | 0.3813 mPa·s
101 kPa | 0.5685 mPa·s and 0.573 mPa·s | – | 0.5 mPa·s and 0.504 mPa·s and 0.502 mPa·s | – | 0.423 mPa·s and 0.443 mPa·s and 0.42 mPa·s | 0.3813 mPa·s and 0.421 mPa·s

CC1=CCC(=C(C)C)CC1
101 kPa
Conditions | viscosity [mPa·s]
303.15 K | 1.007
308.15 K | 0.945
313.15 K | 0.884

CCCC(C)C
101.33 kPa
Conditions | viscosity [mPa·s]
298 K | 0.2753
298.15 K | 0.2767

CCCCCC(=O)O.CCCCCC(=O)[O-].CC[NH+](CC)CCO
101 kPa
Conditions | viscosity [mPa·s]
293.15 K | 76.9
298.15 K | 60.01
303.15 K | 47.52
308.15 K | 38.14
313.15 K | 31
318.15 K | 25.48
323.15 K | 21.16

CCCCCCCCCCCCCCCCCCCCCC
Conditions | viscosity [mPa·s]
323.1 K, 101.3 kPa | 4.128

CCCCn1cc[n+](C)c1.F[P-](F)(F)(F)(F)F
viscosity
Conditions | 293.15 K | 293.2 K | 298.15 K | 303.15 K | 308.15 K | 308.19 K | 313.15 K | 318.15 K | 323.15 K
100 kPa | 336.9 mPa·s | 342.7 mPa·s | 256.7 mPa·s | 197.6 mPa·s | 148.3 mPa·s | 144 mPa·s | 112 mPa·s | 87.66 mPa·s | 70.97 mPa·s
101 kPa | 378 mPa·s and 249.5 mPa·s and 265.2 mPa·s | – | – | 187.6 mPa·s and 136 mPa·s and 165.7 mPa·s | 101.5 mPa·s and 133.9 mPa·s | – | 129.7 mPa·s and 79.01 mPa·s and 110.8 mPa·s | 93.5 mPa·s and 62.4 mPa·s and 95.75 mPa·s | 88.51 mPa·s and 47.7 mPa·s

CCO
Conditions | viscosity
293.61 K, 100 kPa | 1.18 mPa·s
293.91 K, 100 kPa | 1.17 mPa·s
294.21 K, 100 kPa | 1.17 mPa·s
294.52 K, 100 kPa | 1.16 mPa·s
294.82 K, 100 kPa | 1.16 mPa·s
295.12 K, 100 kPa | 1.15 mPa·s
295.42 K, 100 kPa | 1.15 mPa·s
295.73 K, 100 kPa | 1.14 mPa·s
296.03 K, 100 kPa | 1.14 mPa·s
296.33 K, 100 kPa | 1.13 mPa·s
296.64 K, 100 kPa | 1.13 mPa·s
296.94 K, 100 kPa | 1.12 mPa·s
297.24 K, 100 kPa | 1.12 mPa·s
298.15 K, 101 kPa | 1.03 mPa·s
299.06 K, 100 kPa | 1.08 mPa·s
299.36 K, 100 kPa | 1.08 mPa·s
299.67 K, 100 kPa | 1.07 mPa·s
299.97 K, 100 kPa | 1.07 mPa·s
300.27 K, 100 kPa | 1.06 mPa·s
300.58 K, 100 kPa | 1.06 mPa·s
300.88 K, 100 kPa | 1.05 mPa·s
301.18 K, 100 kPa | 1.05 mPa·s
301.48 K, 100 kPa | 1.04 mPa·s
301.79 K, 100 kPa | 1.04 mPa·s
302.09 K, 100 kPa | 1.03 mPa·s
302.39 K, 100 kPa | 1.03 mPa·s
303.15 K, 100 kPa | 0.989 mPa·s
303.15 K, 101.33 kPa | 0.988 mPa·s
303.61 K, 100 kPa | 1.01 mPa·s
303.91 K, 100 kPa | 1 mPa·s
304.21 K, 100 kPa | 1 mPa·s
304.52 K, 100 kPa | 0.99 mPa·s
304.82 K, 100 kPa | 0.99 mPa·s
305.12 K, 100 kPa | 0.98 mPa·s
305.42 K, 100 kPa | 0.98 mPa·s
305.73 K, 100 kPa | 0.97 mPa·s
306.03 K, 100 kPa | 0.97 mPa·s
306.33 K, 100 kPa | 0.96 mPa·s
306.64 K, 100 kPa | 0.96 mPa·s
306.94 K, 100 kPa | 0.95 mPa·s
307.24 K, 100 kPa | 0.95 mPa·s
307.55 K, 100 kPa | 0.94 mPa·s
307.85 K, 100 kPa | 0.94 mPa·s
308.15 K, 100 kPa | 0.93 mPa·s
308.45 K, 100 kPa | 0.93 mPa·s
308.76 K, 100 kPa | 0.92 mPa·s
309.06 K, 100 kPa | 0.92 mPa·s
309.36 K, 100 kPa | 0.91 mPa·s
309.67 K, 100 kPa | 0.91 mPa·s
309.97 K, 100 kPa | 0.9 mPa·s
310.27 K, 100 kPa | 0.9 mPa·s
310.58 K, 100 kPa | 0.89 mPa·s
310.88 K, 100 kPa | 0.89 mPa·s
311.18 K, 100 kPa | 0.88 mPa·s
311.48 K, 100 kPa | 0.88 mPa·s
313.15 K, 100 kPa | 0.8179 mPa·s and 0.82 mPa·s
313.15 K, 101.32 kPa | 0.835 mPa·s
318.15 K, 100 kPa | 0.75 mPa·s
323 K, 101.33 kPa | 0.673 mPa·s and 0.673 mPa·s
323.15 K, 101.32 kPa | 0.702 mPa·s

CCOP(=O)(OCC)OCC
Conditions | viscosity [mPa·s]
298.15 K, 101.3 kPa | 1.503

CCc1ccccc1
Conditions | viscosity
298 K, 101 kPa | 0.6295 mPa·s
298.15 K, 101 kPa | 0.6076 mPa·s and 0.631 mPa·s
298.15 K, 101.3 kPa | 0.657 mPa·s
298.15 K, 101.33 kPa | 0.625 mPa·s
303 K, 101.33 kPa | 0.574 mPa·s
303.15 K, 100 kPa | 0.592 mPa·s
303.15 K, 101 kPa | 0.5916 mPa·s
303.15 K, 101.33 kPa | 0.584 mPa·s
308.15 K, 100 kPa | 0.56 mPa·s
308.15 K, 101.33 kPa | 0.5797 mPa·s and 0.56 mPa·s
313 K, 101.33 kPa | 0.513 mPa·s
313.15 K, 100 kPa | 0.53 mPa·s
313.15 K, 101.33 kPa | 0.531 mPa·s
318.15 K, 100 kPa | 0.503 mPa·s
318.15 K, 101.33 kPa | 0.502 mPa·s and 0.5038 mPa·s
323 K, 101.33 kPa | 0.464 mPa·s
323.15 K, 100 kPa | 0.478 mPa·s
323.15 K, 101.33 kPa | 0.474 mPa·s

COC(C)(C)C
viscosity
Conditions | 293.15 K | 298.15 K | 303.15 K | 308.15 K | 313.15 K | 318.15 K | 323.15 K
100 kPa | 0.345 mPa·s | 0.32 mPa·s | 0.297 mPa·s | 0.275 mPa·s | 0.252 mPa·s | 0.231 mPa·s | 0.206 mPa·s
101 kPa | 0.387 mPa·s and 0.371 mPa·s | 0.374 mPa·s and 0.3558 mPa·s and 0.348 mPa·s | – | 0.341 mPa·s and 0.3245 mPa·s | 0.321 mPa·s | 0.297 mPa·s | 0.276 mPa·s
101.33 kPa | 0.3861 mPa·s and 0.3861 mPa·s | 0.3687 mPa·s and 0.3687 mPa·s and 0.3353 mPa·s | 0.3163 mPa·s | – | 0.2876 mPa·s | – | –

COCCOCCOCCOCCOC
viscosity
Conditions | 293.15 K | 298 K | 298.15 K | 303.15 K | 308.15 K | 318.15 K | 323.15 K
101 kPa | 3.795 mPa·s | 3.295 mPa·s | – | 2.955 mPa·s | 2.646 mPa·s and 2.643 mPa·s and 2.524 mPa·s | 2.168 mPa·s and 2.11 mPa·s | 1.975 mPa·s
101.33 kPa | – | – | 3.394 mPa·s | – | – | – | –

Clc1ccccc1
Conditions | viscosity
293.15 K, 101 kPa | 0.768 mPa·s and 0.793 mPa·s and 0.8062 mPa·s
293.15 K, 101.33 kPa | 0.806 mPa·s and 0.8522 mPa·s
293.45 K, 101.33 kPa | 0.8265 mPa·s
298.15 K, 101.3 kPa | 0.773 mPa·s
298.15 K, 101.33 kPa | 0.8131 mPa·s and 0.755 mPa·s
299 K, 101 kPa | 1.182 mPa·s
303.15 K, 101.3 kPa | 0.725 mPa·s
303.55 K, 101.33 kPa | 0.743 mPa·s
308.15 K, 101.3 kPa | 0.666 mPa·s and 0.683 mPa·s
312.75 K, 101.33 kPa | 0.6695 mPa·s
313.15 K, 101.33 kPa | 0.6469 mPa·s and 0.639 mPa·s
314.25 K, 101.33 kPa | 0.643 mPa·s
318.15 K, 101 kPa | 0.5629 mPa·s and 0.5924 mPa·s and 0.601 mPa·s
318.15 K, 101.3 kPa | 0.615 mPa·s
318.15 K, 101.33 kPa | 0.607 mPa·s
322.35 K, 101.33 kPa | 0.6069 mPa·s
323.15 K, 101 kPa | 0.5724 mPa·s and 0.5701 mPa·s and 0.566 mPa·s
323.15 K, 101.33 kPa | 0.5724 mPa·s

N#CCCCCC#N
Conditions | viscosity [mPa·s]
303.15 K, 101.33 kPa | 4.905

OC1CCCC1
100 kPa
Conditions | viscosity
293.15 K | 12.9 mPa·s
298.15 K | 10.41 mPa·s
303.15 K | 8.2 mPa·s and 8.088 mPa·s
308.15 K | 6.85 mPa·s and 6.528 mPa·s
318.15 K | 4.742 mPa·s
318.16 K | 4.87 mPa·s

OCCCCCO
101 kPa
Conditions | viscosity [mPa·s]
313.15 K | 45.63
318.15 K | 36.87
323.15 K | 29.8

C=CC(=O)OCC + c1ccccc1
viscosity [mPa·s], [1]
Conditions | x2 = 0.1283 | x2 = 0.2137 | x2 = 0.3255 | x2 = 0.4115 | x2 = 0.5361 | x2 = 0.6109 | x2 = 0.7033 | x2 = 0.8074 | x2 = 0.9025
298.15 K | 0.531 | 0.533 | 0.537 | 0.541 | 0.55 | 0.558 | 0.568 | 0.579 | 0.591
303.15 K | 0.499 | 0.5 | 0.501 | 0.502 | 0.509 | 0.516 | 0.524 | 0.535 | 0.548
308.15 K | 0.461 | 0.46 | 0.461 | 0.462 | 0.466 | 0.472 | 0.481 | 0.495 | 0.508
313.15 K | 0.412 | 0.41 | 0.411 | 0.412 | 0.415 | 0.42 | 0.431 | 0.444 | 0.458
